Measured values reported in PubChem BioAssay (NCI).
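96-well plates; 48 h exposure; 5 concentrations. Endpoints by linear interpolation between flanking doses. Not reached: highest tested concentration assigned. Abbreviation: GI50, concentration required for 50% inhibition of growth. TGI: total growth inhibition.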

What was measured:
Test in all cases: DTP human tumour cell line panel, 48 h
[1] = system: SK-MEL-5 melanoma
[2] = system: NCI/ADR-RES ovarian
[3] = system: SF-539 CNS
[4] = system: MALME-3M melanoma
[5] = system: DU-145 prostate
[6] = system: OVCAR-4 ovarian
[7] = system: ACHN renal
[8] = system: EKVX NSCLC
[9] = system: M14 melanoma

| Compound | GI50 [1] [µM] | TGI [1] [µM] | GI50 [2] [µM] | TGI [2] [µM] | GI50 [3] [µM] | TGI [3] [µM] | GI50 [4] [µM] | TGI [4] [µM] | GI50 [5] [µM] | TGI [5] [µM] | GI50 [6] [µM] | TGI [6] [µM] | GI50 [7] [µM] | TGI [7] [µM] | GI50 [8] [µM] | TGI [8] [µM] | GI50 [9] [µM] | TGI [9] [µM] |
| --- | --- | --- | --- | --- | --- | --- | --- | --- | --- | --- | --- | --- | --- | --- | --- | --- | --- | --- |
| Oc1[nH]c2ccccc2c1/C=c1/cc2c(c(-c3ccc(C(F)(F)F)cc3)n1)=Nc1ccccc1-2 | 5.28 | 19.3 | 1.9 | 18.8 | 16.3 | 44.6 | 9.14 | 27.4 | 8.93 | 34.8 | 2.75 | 13.6 | 2.72 | 11.5 | 10.5 | > 100 | 3.89 | 17.4 |
| COc1cccc(CN(C(=O)/C=C\Sc2ccccc2)C(C)(C)C)c1 | – | > 100 | – | > 100 | – | > 100 | – | – | – | > 100 | – | > 100 | – | > 100 | – | > 100 | – | > 100 |
| CNc1ccc(Cl)cc1S(=O)(=O)c1ccccc1[N+](=O)[O-] | – | > 100 | – | > 100 | – | > 100 | – | > 100 | – | > 100 | – | > 100 | – | > 100 | – | > 100 | – | > 100 |
| O=C1CSc2nnc(CCCCCCCCc3nnc4n3NC(=O)CS4)n2N1 | – | – | – | > 100 | – | > 100 | – | > 100 | – | > 100 | – | > 100 | – | > 100 | – | > 100 | – | > 100 |
| CC(C)(C)OC(=O)N1CCc2c(n(C/C=C/c3ccccc3)[nH]c2=O)C1 | – | > 100 | – | > 100 | – | > 100 | – | > 100 | – | > 100 | – | > 100 | – | > 100 | – | > 100 | – | > 100 |
| COC(=O)/C=C/c1ccc2c(c1)CC1(Cc3ccccc3C1)C2 | – | > 100 | – | > 100 | – | > 100 | – | > 100 | – | – | – | > 100 | – | > 100 | – | > 100 | – | > 100 |
| NC(=O)C1=CC2C3C=CC2(O)C(=O)OC3O1 (stereo unspecified) | – | 6.32 | – | 7.22 | – | 15.7 | – | 4.03 | – | 14.2 | – | 13.2 | – | 15.7 | – | 13.5 | – | 13.2 |
| COC1=CC(=O)C2=C(C1=O)[C@H]1CC[C@]3(C)[C@@H](OC(C)=O)CC[C@H]3[C@@H]1CC2 | – | 48.8 | – | > 100 | – | > 100 | – | 59 | – | > 100 | – | 30.6 | – | > 100 | – | 28.5 | – | > 100 |
| O=P(O)(O)CN1CCNCCN(CP(=O)(O)O)CCNCC1 | – | > 42 | – | > 100 | – | > 100 | – | > 100 | – | > 100 | – | > 100 | – | > 100 | – | > 100 | – | > 100 |
| CC(C)CCCC(C)[C@H]1CC[C@H]2N=C(Nc3ccccc3)CCC[C@]12C (stereo partly specified) | – | 3 | – | 3.32 | – | 3.28 | – | 6.39 | – | > 100 | – | 14.4 | – | – | – | – | – | – |
| Cc1ccc(S(=O)(=O)N/N=C2\C3CC4CC(C3)C2C4)cc1 (stereo unspecified) | – | > 100 | – | > 100 | – | > 100 | – | > 100 | – | – | – | > 100 | – | – | – | – | – | > 100 |
| NS(=O)(=O)c1cc(S(N)(=O)=O)c(NC(=O)N(c2ccccc2)c2ccccc2)c(Cl)c1Cl | – | 33.1 | – | 54.4 | – | – | – | – | – | – | – | > 100 | – | 76.5 | – | 62.8 | – | 51.4 |
| COC(=O)C(NC(=O)CSc1nnc(COc2ccc(Cl)cc2)n1-c1ccccc1)C(C)C (stereo unspecified) | – | – | – | 82.1 | – | > 100 | – | 31.9 | – | > 100 | – | 74.1 | – | > 100 | – | 73.1 | – | 58 |
| O=[N+]([O-])c1ccc(NS(=O)(=O)C(F)(F)F)cc1 | – | > 100 | – | > 100 | – | > 100 | – | – | – | > 100 | – | > 100 | – | > 100 | – | > 100 | – | > 100 |
| CC(=O)CC1(C)OC(N)=C(C#N)C1(C#N)C#N (stereo unspecified) | – | > 100 | – | > 100 | – | > 100 | – | > 100 | – | > 100 | – | – | – | > 100 | – | > 100 | – | > 100 |
| Cc1cc(S(=O)(=O)O)c(NC(=O)c2oc3cc(O)ccc3c(=O)c2C)cc1Cl | – | > 100 | – | > 100 | – | > 100 | – | > 100 | – | – | – | > 100 | – | > 100 | – | > 100 | – | > 100 |
| CCOC(=O)C1CCCCc2sc(N)c(C#N)c21 (stereo unspecified) | – | > 100 | – | – | – | – | – | > 100 | – | – | – | – | – | > 100 | – | > 100 | – | > 100 |
| O=S1(=O)OCCOS(=O)(=O)C1Cc1nc2ccccc2[nH]1 | – | > 100 | – | > 100 | – | – | – | > 100 | – | > 100 | – | > 100 | – | > 100 | – | > 100 | – | > 100 |
| COc1ccc(-c2nc(-c3cnccn3)n(C3OC(CO)C(O)C(O)C3O)n2)cc1 (stereo unspecified) | – | > 100 | – | > 100 | – | > 100 | – | – | – | > 100 | – | > 100 | – | – | – | > 100 | – | > 100 |
| CC1(C)[C@@H]2CC[C@@]1(C)[C@H](O)[C@@H]2SCc1ccccc1 | – | 29.1 | – | 33 | – | 34.6 | – | – | – | 40.6 | – | 26.6 | – | 24 | – | 34.2 | – | 30.1 |
| CCCCCCCCCCCCCCCCOCC(Cl)COP(=O)(O)OP(=O)(O)OCC1OC(n2cnc3c(N)ncnc32)C(O)C1O (stereo unspecified) | – | > 100 | – | > 100 | – | > 100 | – | > 100 | – | – | – | > 100 | – | > 100 | – | > 100 | – | > 100 |
| Cc1ccc2c(c1)CC1(C2=O)[C@H](c2ccccc2)C2C(=O)c3ccc(C)cc3C2[C@H]1c1ccccc1 (stereo partly specified) | – | – | – | – | – | > 100 | – | > 100 | – | > 100 | – | > 100 | – | > 100 | – | > 100 | – | > 100 |
| CC(C)(C)c1ccc(-c2nnc(-c3cc(C#N)cc(-c4nnc(-c5ccc(C(C)(C)C)cc5)o4)c3)o2)cc1 | – | > 100 | – | > 100 | – | – | – | > 100 | – | > 100 | – | > 100 | – | > 100 | – | > 100 | – | > 100 |
| COc1ccc(/C=C2\CCC(CNc3ccc(Br)cc3)C2=O)cc1 (stereo unspecified) | – | > 100 | – | > 100 | – | – | – | > 100 | – | > 100 | – | > 100 | – | > 100 | – | > 100 | – | > 100 |
